In US9151757B2, “Detecting antigen responsive cells in a sample” (Stichting Sanquin Bloedvoorziening, priority 2008, dated 2015):

What follows are sequences tested on CD8+ T cells in PBMCs (assay: Combinatorial coding MHC multimer flow cytometry of enriched, in vitro expanded PBMCs). Conditions: enriched PBMCs from 27 HLA-A3 positive melanoma patients, after MACS enrichment and short term in vitro expansion.
Type: cell-based, human

| Sequence | CD8+ T cell responses against peptide detected by dual color-encoded pMHC multimer staining |
| --- | --- |
| RMYNMVPFF (listed as Homo sapiens) | CD8^+ T cell responses were observed |
| GTYEGLLRR (listed as Homo sapiens) [Tyrp2 301-309, unknown HLA-A3 associated T cell antigen] | identification of the unknown HLA-A3 associated T cells antigens |
| QLRALDGGNK (listed as Homo sapiens) | CD8^+ T cell responses were observed |
| HAYIQSLLK (listed as Homo sapiens) | CD8^+ T cell responses were observed |
| SLYRDPLPR (listed as Homo sapiens) | CD8^+ T cell responses were observed |
